Values after ≈ are worked out from the molar mass of the structure shown. Values joined by “and” are separate entries in the source; they are usually repeats but may differ in a detail not shown here. Identical values can stand only once. Like-named read-outs stand apart in the source and are kept apart here.
Key:
[1] = Ionization constant (pKa) determination, Pion Sirius T3, UV-metric and Fast UV titration; format: physicochemical; conditions: for pKa: 0.15 M KCl solution, 0.15 M KCl, 25 ± 1°C
Procedure: The Ionization constant of GT-14 was determined using the Pion Sirius T3 apparatus (Sirius Analytical Instruments Ltd., East Sussex, UK). It has an Ag/AgCl double junction reference pH electrode, a Sirius ±D-PAS spectrometer and a turbidity sensing device. The titration experiments were conducted in 0.15 M KCl solution under an argon atmosphere at a temperature of 25 ± 1°C. All tests were performed using standardized 0.5 M KOH and 0.5 M HCl as titration reagents. pKa value was measured using UV-metric and Fast UV titration methods.

[2] = Solubility in different solvents, shake-flask method; format: physicochemical; conditions: room temperature
Procedure: Solubility of GT-14 was assessed in different solvents, namely, water, ethanol, PEG 300, PEG 400, propylene glycol, DMSO, DMA, olive oil, soybean oil, Labrasol and Labrafac, by the shake-flask method. Briefly, an excess amount of GT-14 was added to each of the selected solvents in a scintillation vial. The vials were allowed to shake on a mechanical reciprocating shaker at room temperature for 24 h to achieve solvent saturation. The samples were then centrifuged at 15,000 rpm for 15 min at room temperature. The supernatant with dissolved GT-14 was separated from the pellet of the undissolved compound. It was then diluted and analyzed by UPLC to determine the concentration of GT-14. All experiments were conducted in triplicates.

[3] = pH-dependent solubility in USP buffers; format: physicochemical; conditions: standard USP buffer, aqueous buffer
Procedure: The pH-dependent stability of GT-14 was assessed in aqueous media of pH ranging from 1 to 10 at room temperature. Standard USP buffers ([11]) were prepared and used for this experiment. Details of buffer solutions are provided in Table I. For the pH solubility profile, GT-14 solid was added in excess amounts in various buffer solutions.

[4] = Cosolvent formulation: solubility, saline dilution and storage stability; format: physicochemical; conditions: for solubility: organic solvent or mixture
Procedure: Co-solvent systems with various compositions and ratios of PEG 400, PEG 300, and propylene glycol were prepared to solubilize 5–10 mg/mL of GT-14. Each system was diluted with normal saline at different ratios of 1:1, 1:3, 1:7, and 1:15 (v/v) and observed for signs of precipitation for 4 h. The cosolvent system with maximum solubility and aqueous tolerance was tested for stability at different temperatures (−20°C, 4°C, and room temperature) in amber glass vials for up to a month. Samples were aliquoted at different time points and analyzed with UPLC.

liver microsomes = assay: Phase II glucuronidation reaction with liver microsomes; format: in vitro ADME; conditions: UDPGA, 2 h
Procedure: The in vitro phase II glucuronidation reaction was carried out using a published protocol that involves the use of uridine diphosphate glucuronic acid (UDPGA) as cofactor, saccharolactone as beta-glucuronidase inhibitor to drive the forward reaction to release the metabolite, potassium phosphate buffer (KPI) to mimic physiological conditions, and alamethicin as a surfactant for the response. The components were pipetted into microcentrifuge tubes in the following order: GT-14 testing solution in KPI (pH 7.4), solution B (25 mM saccharolactone and 5 mM magnesium chloride), solution A (25 mM uridine diphosphate glucuronic acid and potassium chloride), microsome. Samples (100 μL) were taken at 2 h. The reaction was terminated with 50 μL of solution containing 0.6% formic acid in acetonitrile + internal standard (rutin) at each time point and vortexed for 1 min. The samples were then centrifuged at 14,000 rpm for 15 min. The supernatant (100 μL) was then collected and loaded into the UPLC for analysis.

[5] = design: method as in PMID 38744031; conditions: rat, cited from earlier work
DU145 = test system: DU145; design: method as in PMID 32575572; conditions: cited from earlier work
LNCaP cells = test system: LNCaP cells; design: method as in PMID 38254786; conditions: simultaneous treatment; cited from earlier work

## C/C(=N\c1ccc(O)cc1)c1cc2ccccc2n1C [GT-14, (E)-4-((1-(1-methyl-1H-indol-2-yl)ethylidene)amino)phenol]
[1]; read-out: pKa (printed as acidic pKa, nitrogen of the imine group)
  pKa: 3.46 ± 0.014
[1]; read-out: pKa (printed as basic pKa, phenolic group)
  pKa: 10.5 ± 0.4
[1]; pI=(pKa acid+pKa base)/2
  isoelectric point (pI): approximately 7.0
[2]; DMA, thermodynamic from solid, n=3, read-out: Solubility in DMA
  solubility at 24 h: 107000 µg/mL (≈ 406 mM)
[2]; DMSO, thermodynamic from solid, n=3, read-out: Solubility in DMSO
  solubility at 24 h: 80000 µg/mL (≈ 303 mM)
[2]; Labrafac CC (Labrafac Lipophile WL1349), thermodynamic from solid, n=3, read-out: Solubility in Labrafac CC (Labrafac Lipophile WL1349)
  solubility at 24 h: 8600 µg/mL (≈ 32.5 mM)
[2]; Labrasol, thermodynamic from solid, n=3, read-out: Solubility in Labrasol
  solubility at 24 h: 8100 µg/mL (≈ 30.6 mM)
[2]; PEG 300, thermodynamic from solid, n=3, read-out: Solubility in PEG 300
  solubility at 24 h: 17200 µg/mL (≈ 65.1 mM)
[2]; PEG 400, thermodynamic from solid, n=3, read-out: Solubility in PEG 400
  solubility at 24 h: 11300 µg/mL (≈ 42.7 mM)
[2]; olive oil, thermodynamic from solid, n=3, read-out: Solubility in olive oil
  solubility at 24 h: 11400 µg/mL (≈ 43.1 mM)
[2]; propylene glycol, thermodynamic from solid, n=3, read-out: Solubility in propylene glycol
  solubility at 24 h: 5300 µg/mL (≈ 20.1 mM)
[2]; 24 h, n=3
  Solubility in DMA: freely soluble
  Solubility in DMSO: freely soluble
  Solubility in Labrafac CC (Labrafac Lipophile WL1349): slightly soluble
  Solubility in PEG 300: sparingly soluble
  Solubility in PEG 400: sparingly soluble
  Solubility in olive oil: sparingly soluble
  Solubility in propylene glycol: slightly soluble
  Solubility in soybean oil: slightly soluble
  Solubility in water: very slightly soluble
[2]; soybean oil, thermodynamic from solid, n=3, read-out: Solubility in soybean oil
  solubility at 24 h: 7800 µg/mL (≈ 29.5 mM)
[2]; water, n=3, read-out: Solubility in water
  solubility at 24 h: 110 µg/mL (≈ 0.416 mM)
[3]; between pH 5 and 7, 24 h
  solubility thermodynamic at 24 h: < 10 µg/mL
[3]; pH 1.2, 24 h
  solubility thermodynamic at 24 h: ~80 µg/mL (≈ 0.303 mM)
[3]; pH 4.6, 24 h
  solubility thermodynamic at 24 h: ~140 µg/mL (≈ 0.53 mM)
[4]; 4°C, Day 7
  Percentage Recovery, cosolvent formulation: 101.09 ± 2.19%
[4]; 4°C, Day 15
  Percentage Recovery, cosolvent formulation: 99.14 ± 0.32%
[4]; 4°C, Day 30
  Percentage Recovery, cosolvent formulation: 98.83 ± 0.15%
[4]; PEG300: PEG400: Propylene glycol (1:1:1), PEG300: PEG400: Propylene glycol, ratio 1:1:1, read-out: Solubility in cosolvent formulation
  solubility: 6000 µg/mL
[4]; PEG300: PEG400: Propylene glycol (3:2:2 v/v), optimum, PEG300: PEG400: Propylene glycol, ratio 3:2:2 v/v, read-out: Solubility in cosolvent formulation (optimum)
  solubility: 8000 µg/mL
[4]; PEG 300:PEG 400:propylene glycol 3:2:2
  increase of solubility in optimum cosolvent formulation over water solubility: over 70 times
[4]; PEG 400: Propylene glycol: Tween 80 (2:1:0.25), PEG 400: Propylene glycol: Tween 80, ratio 2:1:0.25, read-out: Solubility in cosolvent formulation
  solubility: 5000 µg/mL
[4]; Room Temperature, Day 7
  Percentage Recovery, cosolvent formulation: 93.4% and 93.37± 0.76%
[4]; Room Temperature, Day 15
  Percentage Recovery, cosolvent formulation: 91.18 ± 0.38%
[4]; Room Temperature, Day 30
  Percentage Recovery, cosolvent formulation: 90.88 ± 0.07%
[4]; optimum cosolvent formulation, several ratios of saline
  precipitation on dilution of cosolvent formulation with saline: No precipitation was observed till a 10X dilution with saline
[4]; room temperature
  appearance of cosolvent formulation after one month: grew a darker color
[4]; −20°C and 4°C
  appearance of cosolvent formulation after one month: remained light yellow, without any visible particles
[4]; −20°C, Day 7
  Percentage Recovery, cosolvent formulation: 100.32 ± 0.08%
[4]; −20°C, Day 15
  Percentage Recovery, cosolvent formulation: 101.22 ± 0.27%
[4]; −20°C, Day 30
  Percentage Recovery, cosolvent formulation: 101.26 ± 0.39%
Liver microsomes
  Phase II glucuronidation (UPLC peaks): no additional peaks were observed
[5]; IV bolus 5 mg/kg, two-compartment model
  maximum plasma concentration (Cmax): approximately 200 ng/mL
[5]; IV bolus 5 mg/kg, 5 mg/kg
  terminal plasma elimination half-life: 4.4678 h and 4.468 h
[5]; IV bolus 5 mg/kg
  AUC0–∞: 23,742 min*ng/mL
  apparent volume of distribution (Vd): 25,205 ± 2,585 mL/kg
  distribution half-life: 0.267 h
  mean systemic clearance (CL): 229.9 mL/min/kg
[5]; IV
  Plasma half-life in rats: 4 to 5 h
  terminal plasma elimination half-life: > 4 h
DU145
  migratory capability of DU145 cells: significant reduction
LNCaP cells
  HDACi and antiandrogen effects on cell migration in LNCaP cells: blocked

Source: article PMC13050480, “Preclinical Development of GT-14, a Novel Inhibitor of Gαi2 Protein: Comprehensive Evaluation of Physicochemical, Metabolic Characteristics and Tissue Distribution” (The AAPS journal, 2025)
